Experimental data as given in patent publication US11970494B2, “6-heteroaryloxy benzimidazoles and azabenzimidazoles as JAK2 inhibitors” (Ajax Therapeutics, Inc., priority 2021, dated 2024).

The molecules below were run against T1, JAK2 (JH1 domain-catalytic, Y1007F,Y1008F) kinase (Homo sapiens, UniProt O60674, Y1007F/Y1008F) (assay: JAK2 Binding Assay (JAK2 JH1 Domain Binding Assay)). Details: JAK2 JH1 domain binding, qPCR detection; read-out: JAK2 Kd.
T1 construct: made in house; host or cells: transiently transfected HEK293 cells
T1 sequence (O60674 849-1124 Y1007F/Y1008F limits assumed): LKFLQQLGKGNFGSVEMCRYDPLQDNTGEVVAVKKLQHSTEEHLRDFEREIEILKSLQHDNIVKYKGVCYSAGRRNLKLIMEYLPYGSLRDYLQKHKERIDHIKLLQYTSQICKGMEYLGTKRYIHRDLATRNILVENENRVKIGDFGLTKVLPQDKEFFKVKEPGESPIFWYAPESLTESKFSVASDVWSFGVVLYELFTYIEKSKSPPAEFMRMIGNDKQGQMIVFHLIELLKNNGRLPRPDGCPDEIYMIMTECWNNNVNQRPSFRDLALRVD

| SMILES | Kd [nM] |
| --- | --- |
| CN(C)CCOC(=O)Nc1cc(Oc2cnc3nc(Nc4cc5n(n4)CCCC5(F)F)n(C)c3c2C#N)ccn1 [Example I-38, 2-(Dimethylamino)ethyl(4-((7-cyano-2-((4,4-difluoro-4,5,6,7-tetrahydropyrazolo[1,5-a]pyridin-2-yl)amino)-1-methyl-1H-imidazo[4,5-b]pyridin-6-yl)oxy)pyridin-2-yl)carbamate] | < 10 |
| CN1CC(OC(=O)Nc2cc(Oc3cnc4nc(Nc5cc(C(F)(F)F)cn(C)c5=O)n(C)c4c3C#N)ccn2)C1 [Example I-39, 1-Methylazetidin-3-yl(4-((7-cyano-1-methyl-2-((1-methyl-2-oxo-5-(trifluoromethyl)-1,2-dihydropyridin-3-yl)amino)-1H-imidazo[4,5-b]pyridin-6-yl)oxy)pyridin-2-yl)carbamate] | 50 to 1000 |
| COC(=O)Nc1cc(Oc2cnc3nc(Nc4cc5n(n4)CCN(C)C5=O)n(C)c3c2Cl)ccn1 [Example I-40, Methyl(4-((7-chloro-1-methyl-2-((5-methyl-4-oxo-4,5,6,7-tetrahydropyrazolo[1,5-a]pyrazin-2-yl)amino)-1H-imidazo[4,5-b]pyridin-6-yl)oxy)pyridin-2-yl)carbamate] | 1000 to 5000 |
| COC(=O)Nc1cc(Oc2cnc3nc(Nc4cc5n(n4)CCN(C)C5=O)n(C)c3c2C#N)ccn1 [Example I-41, Methyl(4-((7-cyano-1-methyl-2-((5-methyl-4-oxo-4,5,6,7-tetrahydropyrazolo[1,5-a]pyrazin-2-yl)amino)-1H-imidazo[4,5-b]pyridin-6-yl)oxy)pyridin-2-yl)carbamate] | 50 to 1000 |
| Cn1cc(C(F)(F)F)cc(Nc2nc3ncc(Oc4ccnc(NC(=O)NC5CC5)c4)c(C#N)c3n2C)c1=O [Example I-42, 1-(4-((7-cyano-1-methyl-2-((1-methyl-2-oxo-5-(trifluoromethyl)-1,2-dihydropyridin-3-yl)amino)-1H-imidazo[4,5-b]pyridin-6-yl)oxy)pyridin-2-yl)-3-cyclopropylurea] | < 10 |
| COC(=O)Nc1cc(Oc2cnc3nc(Nc4cc5n(n4)CCOC5(C)C)n(C)c3c2C#N)ccn1 [Example I-43, Methyl(4-((7-cyano-2-((4,4-dimethyl-6,7-dihydro-4H-pyrazolo[5,1-c][1,4]oxazin-2-yl)amino)-1-methyl-1H-imidazo[4,5-b]pyridin-6-yl)oxy)pyridin-2-yl)carbamate] | < 10 |
| CN(C)C(=O)Nc1cc(Oc2cnc3nc(Nc4cc5n(n4)CCOC5(C)C)n(C)c3c2C#N)ccn1 [Example I-44, 3-(4-((7-cyano-2-((4,4-dimethyl-6,7-dihydro-4H-pyrazolo[5,1-c][1,4]oxazin-2-yl)amino)-1-methyl-1H-imidazo[4,5-b]pyridin-6-yl)oxy)pyridin-2-yl)-1,1-dimethylurea] | < 10 |
| Cn1c(Nc2cc3n(n2)CCOC3(C)C)nc2ncc(Oc3ccnc(NC(=O)N4CCCC4)c3)c(C#N)c21 [Example I-45, N-(4-((7-cyano-2-((4,4-dimethyl-6,7-dihydro-4H-pyrazolo[5,1-c][1,4]oxazin-2-yl)amino)-1-methyl-1H-imidazo[4,5-b]pyridin-6-yl)oxy)pyridin-2-yl)pyrrolidine-1-carboxamide] | < 10 |
| CN(C)C(=O)Nc1cc(Oc2cnc3nc(Nc4cc5n(n4)CCN(C)C5=O)n(C)c3c2Cl)ccn1 [Example I-46, 3-(4-((7-chloro-1-methyl-2-((5-methyl-4-oxo-4,5,6,7-tetrahydropyrazolo[1,5-a]pyrazin-2-yl)amino)-1H-imidazo[4,5-b]pyridin-6-yl)oxy)pyridin-2-yl)-1,1-dimethylurea] | > 5000 |
| Cn1c(Nc2cc3n(n2)CCOC3(C)C)nc2ncc(Oc3ccnc(NC(=O)N4CCC4)c3)c(C#N)c21 [Example I-47, N-(4-((7-cyano-2-((4,4-dimethyl-6,7-dihydro-4H-pyrazolo[5,1-c][1,4]oxazin-2-yl)amino)-1-methyl-1H-imidazo[4,5-b]pyridin-6-yl)oxy)pyridin-2-yl)azetidine-1-carboxamide] | < 10 |
| Cn1c(Nc2cc3n(n2)CCOC3(C)C)nc2ncc(Oc3ccnc(NC(=O)O[C@H]4CCOC4)c3)c(C#N)c21 [Example I-49, (S)-Tetrahydrofuran-3-yl(4-((7-cyano-2-((4,4-dimethyl-6,7-dihydro-4H-pyrazolo[5,1-c][1,4]oxazin-2-yl)amino)-1-methyl-1H-imidazo[4,5-b]pyridin-6-yl)oxy)pyridin-2-yl)carbamate] | < 10 |
| [2H]C([2H])([2H])N(C(=O)Nc1cc(Oc2cnc3nc(Nc4cc(C(F)(F)F)cn(C)c4=O)n(C)c3c2C#N)ccn1)C([2H])([2H])[2H] [Example I-52, 3-(4-((7-cyano-1-methyl-2-((1-methyl-2-oxo-5-(trifluoromethyl)-1,2-dihydropyridin-3-yl)amino)-1H-imidazo[4,5-b]pyridin-6-yl)oxy)pyridin-2-yl)-1,1-bis(methyl-d3)urea] | < 10 |
| CN1CCn2nc(Nc3nc4ncc(Oc5ccnc(NC(=O)O[C@@H]6CCOC6)c5)c(Cl)c4n3C)cc2C1=O [Example I-53, (R)-tetrahydrofuran-3-yl(4-((7-chloro-1-methyl-2-((5-methyl-4-oxo-4,5,6,7-tetrahydropyrazolo[1,5-a]pyrazin-2-yl)amino)-1H-imidazo[4,5-b]pyridin-6-yl)oxy)pyridin-2-yl)carbamate] | > 5000 |
| CN1CCn2nc(Nc3nc4ncc(Oc5ccnc(NC(=O)OC6COC6)c5)c(Cl)c4n3C)cc2C1=O [Example I-54, oxetan-3-yl(4-((7-chloro-1-methyl-2-((5-methyl-4-oxo-4,5,6,7-tetrahydropyrazolo[1,5-a]pyrazin-2-yl)amino)-1H-imidazo[4,5-b]pyridin-6-yl)oxy)pyridin-2-yl)carbamate] | 1000 to 5000 |
| CN1CCn2nc(Nc3nc4ncc(Oc5ccnc(NC(=O)O[C@H]6CCOC6)c5)c(Cl)c4n3C)cc2C1=O [Example I-55, (S)-tetrahydrofuran-3-yl(4-((7-chloro-1-methyl-2-((5-methyl-4-oxo-4,5,6,7-tetrahydropyrazolo[1,5-a]pyrazin-2-yl)amino)-1H-imidazo[4,5-b]pyridin-6-yl)oxy)pyridinyl)carbamate] | 1000 to 5000 |
| CNC(=O)Nc1cc(Oc2cnc3nc(Nc4cc5n(n4)CCC54CCC4)n(C)c3c2C#N)ccn1 [Example I-58, 1-(4-((7-cyano-2-((5′,6′-dihydrospiro[cyclobutane-1,4′-pyrrolo[1,2-b]pyrazol]-2′-yl)amino)-1-methyl-1H-imidazo[4,5-b]pyridin-6-yl)oxy)pyridin-2-yl)-3-methylurea] | < 10 |
| CO[C@H]1CCN(C(=O)Nc2cc(Oc3cnc4nc(Nc5cc6n(n5)CCC65CCC5)n(C)c4c3C#N)ccn2)C1 [Example I-59, (S)-N-(4-((7-cyano-2-((5′,6′-dihydrospiro[cyclobutane-1,4′-pyrrolo[1,2-b]pyrazol]-2′-yl)amino)-1-methyl-1H-imidazo[4,5-b]pyridin-6-yl)oxy)pyridin-2-yl)-3-methoxypyrrolidine-1-carboxamide] | < 10 |
| COC(=O)Nc1cc(Oc2cnc3nc(Nc4cc5n(n4)CCCC54CC4)n(C)c3c2C#N)ccn1 [Example I-63, methyl (4-((7-cyano-2-((6′,7′-dihydro-5′H-spiro[cyclopropane-1,4′-pyrazolo[1,5-a]pyridin]-2′-yl)amino)-1-methyl-1H-imidazo[4,5-b]pyridin-6-yl)oxy)pyridin-2-yl)carbamate] | < 10 |
| CNC(=O)Nc1cc(Oc2cnc3nc(Nc4cc5n(n4)CCCC54CC4)n(C)c3c2C#N)ccn1 [Example I-64, 1-(4-((7-cyano-2-((6′,7′-dihydro-5′H-spiro[cyclopropane-1,4′-pyrazolo[1,5-a]pyridin]-2′-yl)amino)-1-methyl-1H-imidazo[4,5-b]pyridin-6-yl)oxy)pyridin-2-yl)-3-methylurea] | < 10 |
| CN(C)C(=O)Nc1cc(Oc2cnc3nc(Nc4cc5n(n4)CCCC54CC4)n(C)c3c2C#N)ccn1 [Example I-65, 3-(4-((7-cyano-2-((6′,7′-dihydro-5′H-spiro[cyclopropane-1,4′-pyrazolo[1,5-a]pyridin]-2′-yl)amino)-1-methyl-1H-imidazo[4,5-b]pyridin-6-yl)oxy)pyridin-2-yl)-1,1-dimethylurea] | < 10 |
| Cn1c(Nc2cc3n(n2)CCC32CCC2)nc2ncc(Oc3ccnc(NC(=O)OC4COC4)c3)c(C#N)c21 [Example I-66, oxetan-3-yl (4-((7-cyano-2-((5′,6′-dihydrospiro[cyclobutane-1,4′-pyrrolo[1,2-b]pyrazol]-2′-yl)amino)-1-methyl-1H-imidazo[4,5-b]pyridin-6-yl)oxy)pyridin-2-yl)carbamate] | < 10 |
| CN(C)C(=O)Nc1cc(Oc2cnc3nc(Nc4cc5n(n4)CCOCC5(C)C)n(C)c3c2C#N)ccn1 [Example I-67, 3-(4-((7-cyano-2-((4,4-dimethyl-4,5,7,8-tetrahydropyrazolo[1,5-d][1,4]oxazepinyl)amino)-1-methyl-1H-imidazo[4,5-b]pyridin-6-yl)oxy)pyridin-2-yl)-1,1-dimethylurea] | < 10 |
| COC(=O)Nc1cc(Oc2cnc3nc(Nc4cc5n(n4)CCOCC5(C)C)n(C)c3c2C#N)ccn1 [Example I-68, methyl(4-((7-cyano-2-((4,4-dimethyl-4,5,7,8-tetrahydropyrazolo[1,5-d][1,4]oxazepin-2-yl)amino)-1-methyl-1H-imidazo[4,5-b]pyridin-6-yl)oxy)pyridin-2-yl)carbamate] | < 10 |
| CNC(=O)Nc1cc(Oc2cnc3nc(Nc4cc5n(n4)CCOCC5(C)C)n(C)c3c2C#N)ccn1 [Example I-69, 1-(4-((7-cyano-2-((4,4-dimethyl-4,5,7,8-tetrahydropyrazolo[1,5-d][1,4]oxazepin-2-yl)amino)-1-methyl-1H-imidazo[4,5-b]pyridin-6-yl)oxy)pyridin-2-yl)-3-methylurea] | < 10 |
| CN(C)C(=O)Nc1cc(Oc2cnc3nc(Nc4cc5n(n4)CCN5C(C)(C)C)n(C)c3c2C#N)ccn1 [Example I-70, 3-(4-((2-((1-(tert-butyl)-2,3-dihydro-1H-imidazo[1,2-b]pyrazol-6-yl)amino)-7-cyano-1-methyl-1H-imidazo[4,5-b]pyridin-6-yl)oxy)pyridin-2-yl)-1,1-dimethylurea] | 10 to 50 |
